{"source": "paper PMC4756048", "about": "(Clinical Pharmacokinetics, 2015)", "key": {"[1]": {"tested_on": "CatA and carboxylesterase (CES) 1", "details": "cited from earlier work"}, "CYP1A2": {"tested_on": "CYP1A2", "details": "caffeine; cited from earlier work"}, "CYP3A (intestinal)": {"tested_on": "CYP3A (intestinal)", "details": "cited from earlier work"}, "P-gp [2]": {"tested_on": "P-gp", "details": "in vitro; cited from earlier work"}, "OATP1B3 [3]": {"tested_on": "OATP1B3", "details": "in vitro; data on file; cited from earlier work"}, "OATP1B1 [4]": {"tested_on": "OATP1B1", "details": "in vitro; cited from earlier work"}, "CYP2C8": {"tested_on": "CYP2C8", "details": "in vitro; cited from earlier work"}, "[5]": {"tested_on": "bile salt export pump (BSEP)", "details": "in vitro; cited from earlier work"}, "CYP2D6": {"tested_on": "CYP2D6", "details": "in vitro; cited from earlier work"}, "CYP2C19": {"tested_on": "CYP2C19", "details": "in vitro; cited from earlier work"}, "plasma proteins": {"tested_on": "plasma proteins", "details": "largely to albumin; cited from earlier work"}, "BCRP": {"tested_on": "BCRP", "details": "in vitro; cited from earlier work"}, "MRP2 [6]": {"tested_on": "MRP2", "details": "in vitro; data on file; cited from earlier work"}, "OATP1B1 [7]": {"tested_on": "OATP1B1", "details": "in vitro; cited from earlier work", "remark": "listed apart in the source"}, "[8]": {"type": "in vivo, human", "details": "data on file"}, "CYP3A [9]": {"tested_on": "CYP3A", "details": "in vitro; cited from earlier work"}, "MRP2 [10]": {"tested_on": "MRP2", "details": "in vitro; cited from earlier work"}, "[11]": {"target": "T1, sodium taurocholate cotransporting polypeptide (NTCP) (Homo sapiens, UniProt Q14973)", "T1 sequence (Q14973 1-349)": "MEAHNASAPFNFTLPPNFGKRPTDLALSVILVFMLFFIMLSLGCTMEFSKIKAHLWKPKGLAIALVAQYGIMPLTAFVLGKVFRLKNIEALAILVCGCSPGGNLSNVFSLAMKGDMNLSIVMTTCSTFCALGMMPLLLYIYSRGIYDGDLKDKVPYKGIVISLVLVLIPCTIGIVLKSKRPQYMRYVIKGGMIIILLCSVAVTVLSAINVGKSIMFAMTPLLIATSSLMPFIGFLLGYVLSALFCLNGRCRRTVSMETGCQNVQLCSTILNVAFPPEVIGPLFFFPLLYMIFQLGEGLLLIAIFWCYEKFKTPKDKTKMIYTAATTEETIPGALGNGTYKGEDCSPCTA", "assay": "In vitro transporter inhibition", "type": "in vitro ADME", "details": "data on file"}, "[12]": {"details": "cited from earlier work"}, "CYP3A [13]": {"tested_on": "CYP3A", "details": "in vitro; cited from earlier work", "remark": "listed apart in the source"}, "P-gp [14]": {"tested_on": "P-gp", "details": "in vitro; data on file; cited from earlier work"}, "[15]": {"tested_on": "breast cancer resistance protein (BCRP)", "details": "in vitro; data on file; cited from earlier work"}, "[16]": {"details": "cited from earlier work", "remark": "listed apart in the source"}, "cathepsin A": {"target": "T2, cathepsin A (Homo sapiens, UniProt P10619)", "T2 sequence (P10619 29-480)": "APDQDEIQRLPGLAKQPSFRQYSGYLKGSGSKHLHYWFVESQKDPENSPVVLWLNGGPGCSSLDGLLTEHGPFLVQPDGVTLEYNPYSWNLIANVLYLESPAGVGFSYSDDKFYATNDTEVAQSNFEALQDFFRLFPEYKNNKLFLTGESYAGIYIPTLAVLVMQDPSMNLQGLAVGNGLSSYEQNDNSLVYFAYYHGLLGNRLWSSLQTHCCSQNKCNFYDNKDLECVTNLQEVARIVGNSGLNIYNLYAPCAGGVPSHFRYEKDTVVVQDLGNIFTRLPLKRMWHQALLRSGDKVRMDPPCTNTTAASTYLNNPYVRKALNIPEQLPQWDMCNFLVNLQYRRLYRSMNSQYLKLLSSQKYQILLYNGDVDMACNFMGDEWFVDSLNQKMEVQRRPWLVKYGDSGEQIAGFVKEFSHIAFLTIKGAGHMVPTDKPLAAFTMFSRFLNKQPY", "assay": "In vitro cathepsin A inhibition", "type": "biochemical", "details": "data on file"}, "CYP2A6": {"tested_on": "CYP2A6", "details": "in vitro; cited from earlier work"}, "OATP1B3 [17]": {"tested_on": "OATP1B3", "details": "in vitro; cited from earlier work"}, "[18]": {"details": "oral midazolam 0.075 mg/kg, simeprevir 150 mg, fed, 16 healthy subjects, least squares mean ratio (90 % CI)"}, "[19]": {"details": "interim analysis, simeprevir 150 mg once daily"}, "[20]": {"details": "interim analysis, simeprevir 150 mg once daily, vs historical data on simeprevir alone"}, "[21]": {"details": "simeprevir 150 mg once daily + erythromycin 500 mg three times daily, days 1–7, fed, 24 healthy subjects"}, "[22]": {"details": "simeprevir 200 mg once daily + ritonavir 100 mg twice daily, fed, 12 healthy male subjects"}, "[23]": {"details": "vs subjects with normal renal function"}}, "note": "Read-outs that look alike come from different tables or passages of the source."}
{"compound": "CC(C)OC(=O)[C@H](C)N[P@](=O)(OC[C@H]1O[C@@H](n2ccc(=O)[nH]c2=O)[C@](C)(F)[C@@H]1O)Oc1ccccc1", "note": "[sofosbuvir]", "values": [{"measurement": "conversion to metabolite GS-331007", "setting": "[1]", "result": "> 90", "unit": "%"}]}
{"compound": "Cn1c(=O)c2c(ncn2C)n(C)c1=O", "note": "[Caffeine, caffeine]", "values": [{"measurement": "increase in exposure with coadministration of simeprevir", "setting": "CYP1A2", "result": 12, "unit": "%"}]}
{"compound": "Cc1ncc2n1-c1ccc(Cl)cc1C(c1ccccc1F)=NC2", "note": "[Midazolam, midazolam]", "values": [{"measurement": "AUClast ratio of probe with vs without simeprevir", "setting": "CYP3A (intestinal); [18]", "result": "1.45 (1.35–1.57)"}, {"measurement": "Cmax ratio of probe with vs without simeprevir", "setting": "CYP3A (intestinal); [18]", "result": "1.31 (1.19–1.45)"}, {"measurement": "increase in exposure with coadministration of simeprevir", "setting": "CYP3A (intestinal); oral midazolam", "result": 31, "unit": "%"}]}
{"compound": "COc1ccc2c(O[C@@H]3C[C@H]4C(=O)N[C@]5(C(=O)NS(=O)(=O)C6CC6)C[C@H]5/C=C\\CCCCN(C)C(=O)[C@@H]4C3)cc(-c3nc(C(C)C)cs3)nc2c1C", "note": "[simeprevir]", "values": [{"measurement": "inhibition of P-gp", "setting": "P-gp [2]", "result": "inhibitor"}, {"measurement": "inhibition of OATP1B3", "setting": "OATP1B3 [3]", "result": "inhibitor"}, {"measurement": "inhibition of OATP1B1", "setting": "OATP1B1 [4]", "result": "inhibitor"}, {"measurement": "inhibition of CYP2C8", "setting": "CYP2C8", "result": "moderate inhibitor"}, {"measurement": "inhibition of BSEP", "setting": "[5]", "result": "inhibitor"}, {"measurement": "inhibition of CYP2D6", "setting": "CYP2D6", "result": "moderate inhibitor"}, {"measurement": "inhibition of CYP2C19", "setting": "CYP2C19", "result": "weak inhibitor"}, {"measurement": "bound to plasma proteins", "setting": "plasma proteins", "result": "> 99.9", "unit": "%"}, {"measurement": "inhibition of BCRP", "setting": "BCRP", "result": "inhibitor"}, {"measurement": "substrate of MRP2", "setting": "MRP2 [6]", "result": "substrate"}, {"measurement": "hepatic uptake by OATP1B1", "setting": "OATP1B1 [7]", "result": "mediate hepatic uptake"}, {"measurement": "AUC24h of simeprevir, historical data in the absence of cyclosporine", "setting": "[8]", "result": "45,202 ng·h/mL"}, {"measurement": "Cmax of simeprevir, historical data in the absence of cyclosporine", "setting": "[8]", "result": 3235, "unit": "ng/mL"}, {"measurement": "AUC24h of simeprevir in subjects receiving cyclosporine", "setting": "[8]; day 14, simeprevir 150 mg once daily", "result": "262,618 ng·h/mL"}, {"measurement": "Cmax of simeprevir in subjects receiving cyclosporine", "setting": "[8]; day 14, simeprevir 150 mg once daily, n = 9", "result": "15,321 ng/mL"}, {"measurement": "AUC24h of simeprevir in subjects receiving tacrolimus", "setting": "[8]; [19]", "result": "83,808 ng·h/mL"}, {"measurement": "Cmax of simeprevir in subjects receiving tacrolimus", "setting": "[8]; [19]", "result": 5780, "unit": "ng/mL"}, {"measurement": "increase in AUC24h of simeprevir with tacrolimus", "setting": "[8]; [20]", "result": 85, "unit": "%"}, {"measurement": "increase in Cmax of simeprevir with tacrolimus", "setting": "[8]; [20]", "result": 79, "unit": "%"}, {"measurement": "inhibition of CYP3A", "setting": "CYP3A [9]", "result": "weak inhibitor"}, {"measurement": "inhibition of MRP2", "setting": "MRP2 [10]", "result": "inhibitor"}, {"measurement": "inhibition of NTCP", "setting": "[11]", "result": "inhibitor"}, {"measurement": "fold increase in mean AUC24h of simeprevir with erythromycin", "setting": "[12]; [21]", "result": 7.47, "unit": "fold"}, {"measurement": "fold increase in mean Cmax of simeprevir with erythromycin", "setting": "[12]; [21]", "result": 4.53, "unit": "fold"}, {"measurement": "fold increase in mean Cmin of simeprevir with erythromycin", "setting": "[12]; [21]", "result": 12.74, "unit": "fold"}, {"measurement": "fold increase in AUC24h of simeprevir with ritonavir, multiple doses", "setting": "[12]; [22]", "result": 7.18, "unit": "fold"}, {"measurement": "fold increase in Cmax of simeprevir with ritonavir, multiple doses", "setting": "[12]; [22]", "result": 4.70, "unit": "fold"}, {"measurement": "fold increase in Cmin of simeprevir with ritonavir, multiple doses", "setting": "[12]; [22]", "result": 14.35, "unit": "fold"}, {"measurement": "substrate of CYP3A", "setting": "CYP3A [13]", "result": "substrate"}, {"measurement": "substrate of P-gp", "setting": "P-gp [14]", "result": "substrate"}, {"measurement": "substrate of BCRP", "setting": "[15]", "result": "substrate"}, {"measurement": "mean terminal elimination half-life", "setting": "[16]; HCV-infected subjects (n = 6)", "result": "approximately 41 h"}, {"measurement": "increase in AUC with food", "setting": "[16]; high-fat/high-caloric breakfast", "result": 61, "unit": "%"}, {"measurement": "AUC in subjects infected with HCV relative to uninfected subjects", "setting": "[16]; human, in vivo", "result": "2–3 times"}, {"measurement": "increase in exposure in moderate hepatic impairment", "setting": "[16]; non-HCV-infected subjects vs matched healthy controls", "result": "approximately 2 fold"}, {"measurement": "increase in exposure in severe compared with moderate hepatic impairment", "setting": "[16]; non-HCV-infected subjects", "result": "approximately 2 fold"}, {"measurement": "increase in AUC with food", "setting": "[16]; normal-caloric breakfast", "result": 69, "unit": "%"}, {"measurement": "time to steady state", "setting": "[16]; once-daily dosing", "result": 7, "unit": "days"}, {"measurement": "time of maximum plasma concentration (Cmax) postdose", "setting": "[16]; oral", "result": "4 to 6", "unit": "h"}, {"measurement": "dose proportionality of Cmax and AUC", "setting": "[16]; repeated doses between 75 mg and 200 mg daily", "result": "more than dose proportionally"}, {"measurement": "mean terminal elimination half-life", "setting": "[16]; subjects without HCV infection", "result": "10 to 13", "unit": "h"}, {"measurement": "increase in AUC24h in severe renal impairment", "setting": "[16]; [23]", "result": 62, "unit": "%"}, {"measurement": "increase in Cmax in severe renal impairment", "setting": "[16]; [23]", "result": 34, "unit": "%"}, {"measurement": "inhibition of cathepsin A", "setting": "cathepsin A", "result": "no clinically relevant inhibition"}, {"measurement": "inhibition of CYP2A6", "setting": "CYP2A6", "result": "moderate inhibitor"}, {"measurement": "hepatic uptake by OATP1B3", "setting": "OATP1B3 [17]", "result": "mediate hepatic uptake"}]}
